In ChEMBL document CHEMBL1275440, “In vitro activity of telavancin against resistant gram-positive bacteria” (2008):
In brackets after ≈: the same amount, converted by molar mass. Activity calls are given as the source filed them. The calls are words filed in the database; no cut-off is given here.

Tests used:
Staphylococcus aureus [1] = test: Antibacterial activity against methicillin resistant Staphylococcus aureus MED 2028 osteomyelitis isolate assessed as bacterial count at 1 ug/ml after 24 hrs by time-kill assay; type: functional
Streptococcus viridans = test: Antibacterial activity against Streptococcus viridans clinical isolate by broth microdilution method; type: functional
[2] = tested on: Streptococcus constellatus; test: Antibacterial activity against Streptococcus constellatus clinical isolate by broth microdilution method; type: functional
Streptococcus agalactiae [3] = test: Antibacterial activity against Streptococcus agalactiae group B clinical isolate by broth microdilution method; type: functional
Streptococcus pyogenes [4] = test: Antibacterial activity against Streptococcus pyogenes group A clinical isolate by broth microdilution method; type: functional
Streptococcus pneumoniae [5] = test: Antibacterial activity against multidrug-resistant Streptococcus pneumoniae clinical isolate by broth microdilution method; type: functional
Streptococcus pneumoniae [6] = test: Antibacterial activity against penicillin resistant Streptococcus pneumoniae clinical isolate by broth microdilution method; type: functional
[7] = tested on: Staphylococcus saprophyticus; test: Antibacterial activity against methicillin resistant coagulase-negative Staphylococcus saprophyticus clinical isolate by broth microdilution method; type: functional
Staphylococcus aureus [8] = test: Antibacterial activity against methicillin resistant Staphylococcus aureus clinical isolate by broth microdilution method; type: functional
Streptococcus pyogenes [9] = test: Antibacterial activity against Streptococcus pyogenes MED 2040 assessed as bacterial count at […] after 4 hrs by time-kill assay; type: functional
Streptococcus pyogenes [10] = test: Antibacterial activity against Streptococcus pyogenes MED 2040 assessed as bacterial count at 0.5 ug/ml after 2 hrs by time-kill assay; type: functional
Streptococcus pyogenes [11] = test: Antibacterial activity against Streptococcus pyogenes MED 2040 assessed as bacterial count at 2 ug/ml after 4 hrs by time-kill assay; type: functional
Streptococcus pyogenes [12] = test: Antibacterial activity against Streptococcus pyogenes MED 2040 assessed as bacterial count at 8 ug/ml after 4 hrs by time-kill assay; type: functional
Streptococcus pyogenes [13] = test: Antibacterial activity against Streptococcus pyogenes MED 2040 assessed as bacterial count at 8 ug/ml after 24 hrs by time-kill assay; type: functional
Enterococcus faecalis [14] = test: Antibacterial activity against Enterococcus faecalis ATCC 51575 assessed as bacterial count at 2 ug/ml after 2 hrs by time-kill assay; type: functional
Enterococcus faecalis [15] = test: Antibacterial activity against Enterococcus faecalis ATCC 51575 assessed as bacterial count at 2 ug/ml after 4 hrs by time-kill assay; type: functional
Enterococcus faecalis [16] = test: Antibacterial activity against Enterococcus faecalis ATCC 51575 assessed as bacterial count at 2 ug/ml after 8 hrs by time-kill assay; type: functional
Enterococcus faecalis [17] = test: Antibacterial activity against Enterococcus faecalis ATCC 51575 assessed as bacterial count at 4 ug/ml after 24 hrs by time-kill assay; type: functional
Enterococcus faecalis [18] = test: Antibacterial activity against Enterococcus faecalis ATCC 51575 assessed as bacterial count at 8 ug/ml after 4 hrs by time-kill assay; type: functional
Streptococcus pyogenes [19] = test: Antibacterial activity against Streptococcus pyogenes MED 2040 assessed as bacterial count at […] after 2 hrs by time-kill assay; type: functional
Streptococcus agalactiae [20] = test: Antibacterial activity against Streptococcus agalactiae MED 2038 assessed as bacterial count at 8 ug/ml after 4 hrs by time-kill assay; type: functional
Streptococcus agalactiae [21] = test: Antibacterial activity against Streptococcus agalactiae MED 2038 assessed as bacterial count at 2 ug/ml after 24 hrs by time-kill assay; type: functional
Streptococcus agalactiae [22] = test: Antibacterial activity against Streptococcus agalactiae MED 2038 assessed as bacterial count at 2 ug/ml after 8 hrs by time-kill assay; type: functional
Streptococcus agalactiae [23] = test: Antibacterial activity against Streptococcus agalactiae MED 2038 assessed as bacterial count at […] after 8 hrs by time-kill assay; type: functional
Streptococcus agalactiae [24] = test: Antibacterial activity against Streptococcus agalactiae MED 2038 assessed as bacterial count at […] after 2 hrs by time-kill assay; type: functional
Streptococcus pneumoniae [25] = test: Antibacterial activity against multidrug resistant Streptococcus pneumoniae MED 1090 assessed as bacterial count at 8 ug/ml after 4 hrs by time-kill assay; type: functional
Streptococcus pneumoniae [26] = test: Antibacterial activity against multidrug resistant Streptococcus pneumoniae MED 1090 assessed as bacterial count at 0.06 ug/ml after 24 hrs by time-kill assay; type: functional
Streptococcus pneumoniae [27] = test: Antibacterial activity against multidrug resistant Streptococcus pneumoniae MED 1090 assessed as bacterial count at 0.06 ug/ml after 4 hrs by time-kill assay; type: functional
[28] = tested on: Staphylococcus epidermidis; test: Antibacterial activity against methicillin resistant Staphylococcus epidermidis ATCC 35984 assessed as bacterial count at 16 ug/ml after 4 hrs by time-kill assay; type: functional
[29] = tested on: Staphylococcus epidermidis; test: Antibacterial activity against methicillin resistant Staphylococcus epidermidis ATCC 35984 assessed as bacterial count at 8 ug/ml after 24 hrs by time-kill assay; type: functional
[30] = tested on: Staphylococcus epidermidis; test: Antibacterial activity against methicillin resistant Staphylococcus epidermidis ATCC 35984 assessed as bacterial count at 8 ug/ml after 8 hrs by time-kill assay; type: functional
[31] = tested on: Staphylococcus epidermidis; test: Antibacterial activity against methicillin resistant Staphylococcus epidermidis ATCC 35984 assessed as bacterial count at 4 ug/ml after 2 hrs by time-kill assay; type: functional
Staphylococcus aureus [32] = test: Antibacterial activity against methicillin resistant Staphylococcus aureus MED 1805 bloodstream isolate assessed as bacterial count at 16 ug/ml after 2 hrs by time-kill assay; type: functional
Staphylococcus aureus [33] = test: Antibacterial activity against methicillin resistant Staphylococcus aureus MED 1805 bloodstream isolate assessed as bacterial count at 4 ug/ml after 8 hrs by time-kill assay; type: functional
Staphylococcus aureus [34] = test: Antibacterial activity against methicillin resistant Staphylococcus aureus MED 1805 bloodstream isolate assessed as bacterial count at 4 ug/ml after 4 hrs by time-kill assay; type: functional
Staphylococcus aureus [35] = test: Antibacterial activity against methicillin resistant Staphylococcus aureus MED 1805 bloodstream isolate assessed as bacterial count at 4 ug/ml after 2 hrs by time-kill assay; type: functional
Staphylococcus aureus [36] = test: Antibacterial activity against methicillin resistant Staphylococcus aureus MED 1805 bloodstream isolate assessed as bacterial count at 2 ug/ml after 24 hrs by time-kill assay; type: functional
Staphylococcus aureus [37] = test: Antibacterial activity against methicillin resistant Staphylococcus aureus MED 1805 bloodstream isolate assessed as bacterial count at 2 ug/ml after 8 hrs by time-kill assay; type: functional
Staphylococcus aureus [38] = test: Antibacterial activity against methicillin resistant Staphylococcus aureus MED 2028 osteomyelitis isolate assessed as bacterial count at 16 ug/ml after 24 hr by time-kill assay; type: functional
Staphylococcus aureus [39] = test: Antibacterial activity against methicillin resistant Staphylococcus aureus MED 2028 osteomyelitis isolate assessed as bacterial count at 16 ug/ml after 2 hrs by time-kill assay; type: functional
Staphylococcus aureus [40] = test: Antibacterial activity against methicillin resistant Staphylococcus aureus MED 2028 osteomyelitis isolate assessed as bacterial count at 8 ug/ml after 24 hrs by time-kill assay; type: functional
Staphylococcus aureus [41] = test: Antibacterial activity against methicillin resistant Staphylococcus aureus MED 2028 osteomyelitis isolate assessed as bacterial count at 4 ug/ml after 8 hrs by time-kill assay; type: functional
Enterococcus faecalis [42] = tested on: Enterococcus faecalis

## CCCCCCCCCCNCCN[C@@]1(C)C[C@H](O[C@H]2[C@H](Oc3c4cc5cc3Oc3ccc(cc3Cl)[C@@H](O)[C@@H](NC(=O)[C@@H](CC(C)C)NC)C(=O)N[C@@H](CC(N)=O)C(=O)N[C@H]5C(=O)N[C@H]3C(=O)N[C@H](C(=O)N[C@H](C(=O)O)c5cc(O)c(CNCP(=O)(O)O)c(O)c5-c5cc3ccc5O)[C@H](O)c3ccc(c(Cl)c3)O4)O[C@H](CO)[C@@H](O)[C@@H]2O)O[C@@H](C)[C@H]1O [TELAVANCIN]
Staphylococcus aureus [1]
  log10CFU/ml: 2.1
Streptococcus viridans
  MIC: 0.015 µg/mL (≈ 0.00854 µM)
  MIC50: inactive
  MIC90: inactive
[2]
  MIC: 0.015 µg/mL (≈ 0.00854 µM)
  MIC50: inactive
  MIC90: inactive
Streptococcus agalactiae [3]
  MIC50: 0.06 µg/mL (≈ 0.0342 µM)
  MIC90: 0.06 µg/mL (≈ 0.0342 µM)
Streptococcus pyogenes [4]
  MIC50: 0.03 µg/mL (≈ 0.0171 µM)
  MIC90: 0.06 µg/mL (≈ 0.0342 µM)
Streptococcus pneumoniae [5]
  MIC50: 0.015 µg/mL (≈ 0.00854 µM)
  MIC90: 0.03 µg/mL (≈ 0.0171 µM)
Streptococcus pneumoniae [6]
  MIC50: 0.015 µg/mL (≈ 0.00854 µM)
  MIC90: 0.03 µg/mL (≈ 0.0171 µM)
[7]
  MIC50: 0.5 µg/mL (≈ 0.285 µM)
  MIC90: 1 µg/mL (≈ 0.57 µM)
Staphylococcus aureus [8]
  Activity: 100%
Staphylococcus aureus [8]; Staphylococcus aureus
  MIC50: 0.25 µg/mL (≈ 0.142 µM)
  MIC90: 0.5 µg/mL (≈ 0.285 µM)
Streptococcus pyogenes [9]
  log10CFU/ml: 1.8
Streptococcus pyogenes [10]
  log10CFU/ml: 0.9
Streptococcus pyogenes [11]
  log10CFU/ml: 2.7
Streptococcus pyogenes [12]
  log10CFU/ml: 1.2
Streptococcus pyogenes [13]
  log10CFU/ml: 2.7
Enterococcus faecalis [14]
  log10CFU/ml: 0.5
Enterococcus faecalis [15]
  log10CFU/ml: 0.5
Enterococcus faecalis [16]
  log10CFU/ml: 0.6
Enterococcus faecalis [17]
  log10CFU/ml: 1.2
Enterococcus faecalis [18]
  log10CFU/ml: 0.2
Streptococcus pyogenes [19]
  log10CFU/ml: 0.4
Streptococcus agalactiae [20]
  log10CFU/ml: 0.9
Streptococcus agalactiae [21]
  log10CFU/ml: 2.7
Streptococcus agalactiae [22]
  log10CFU/ml: 1
Streptococcus agalactiae [23]
  log10CFU/ml: 1.6
Streptococcus agalactiae [24]
  log10CFU/ml: 1
Streptococcus pneumoniae [25]
  log10CFU/ml: 1.7
Streptococcus pneumoniae [26]
  log10CFU/ml: 3.4
Streptococcus pneumoniae [27]
  log10CFU/ml: 2.1
[28]
  log10CFU/ml: 3.2
[29]
  log10CFU/ml: 3.3
[30]
  log10CFU/ml: 3.3
[31]
  log10CFU/ml: 1
Staphylococcus aureus [32]
  log10CFU/ml: 0.7
Staphylococcus aureus [33]
  log10CFU/ml: 3
Staphylococcus aureus [34]
  log10CFU/ml: 1.8
Staphylococcus aureus [35]
  log10CFU/ml: 1.2
Staphylococcus aureus [36]
  log10CFU/ml: 2.8
Staphylococcus aureus [37]
  log10CFU/ml: 2.7
Staphylococcus aureus [38]
  log10CFU/ml: 3.4
Staphylococcus aureus [39]
  log10CFU/ml: 0.3
Staphylococcus aureus [40]
  log10CFU/ml: 3.4
Staphylococcus aureus [41]
  log10CFU/ml: 3.4
Enterococcus faecalis [42]
  MIC50: inactive
  MIC90: inactive
